# Laboratory results as given in PMC12040169 (PLOS Biology, 2025).
# Test: in vitro
# Settings: human, hela cells, % viability
row,Structure (SMILES),"viability at 28.5 h, 10 µM"
1,O=[N+]([O-])c1ccccc1S(=O)(=O)NCCSCc1c(F)cccc1Cl [CBK265259],102%
2,Cc1cc(C)nc(NC(=N)NCCc2c[nH]c3ccccc23)n1 [CBK266321],70.2%
3,CC1CC(C(F)F)n2nc(C(=O)O)nc2N1 (centres unmarked) [CBK267636],99.7%
4,O=C(NC(Cc1ccsc1)c1cccnc1)C1CCOC1 (centres unmarked) [CBK285116],106%
5,Cc1cc(/C=C(/C#N)c2cccc(F)c2)c(C)n1-c1ccc(S(N)(=O)=O)cc1 [CBK268268],99.9%
6,CO[C@@H](C(=O)Nc1cnc(-c2ccc(F)cc2)c(-c2ccsc2)n1)c1ccccc1 [CBK036803],98.4%
7,COc1nn(CC(=O)NC2(C)CCC2)c(=O)c2ccccc12 [CBK281603],83.2%
8,O=C(O)c1ccc(NS(=O)(=O)/C=C/c2ccccc2)cc1 [CBK034062],100%
9,Cc1nc2c(C(=O)NC3CCOCC3)cnn2c(C)c1Cc1cccc(Br)c1 [CBK165011],92.3%
10,OCc1cccc(-c2cc(NCc3ccccc3)n3nccc3n2)c1 [CBK037113],95.6%
11,CN(c1ncccc1CNC(=O)c1cccnc1)C1CCCCC1 [CBK306555],103%
12,O=C(CCn1c2ccccc2c2ccccc21)NNC(=S)Nc1ccccc1 [CBK262106],94.6%
13,N=C(N)NC1=NC(=O)C(CC(=O)Nc2ccc(Oc3ccccc3)cc2)S1 (centres unmarked) [CBK300482],105%
14,COCc1ccccc1Cn1cnc2ccccc21 [CBK267496],100%
15,O=C(CCN1CCN(C(c2ccccc2)c2ccccc2)CC1)c1ccccc1 [CBK074788],111%
16,Nc1cc2cc(F)ccc2nc1C1CCN(C(=O)C2CC2)CC1 [CBK284657],93.4%
17,Cc1nn(CCC#N)c(C)c1[C@@H]1C=C[C@@H](NC(=O)NCc2ccccc2)C1 [CBK289174],96.8%
18,COC(=O)c1cc(O)ccc1N [CBK002250],105%
19,FC(F)(F)c1nc2ccccc2nc1SC1CCCCC1 [CBK107205],97.2%
20,COc1cc(C(=O)NCc2ccccn2)cc(OC)c1OC [CBK058552],88.3%
21,CC(=O)Nc1cccc(NC(=O)c2cc(-c3ccccc3)nn2-c2ccccc2)c1 [CBK296997],90.1%
22,CCN(Cc1ccncc1)C(=O)NCc1cccnc1 [CBK145054],94.6%

row,Structure (SMILES),"viability at 28.5 h, 10 µM"
1,O=C(Cc1ccccc1C(=O)O)Nc1ccc(-n2cncn2)c(Cl)c1 [CBK286756],85.7%
2,CC(=C\C(=O)O)/C(=C/c1ccncc1)C(=O)O [CBK278265N],116%
3,Cc1ccc(S(=O)(=O)NCCSc2ccccn2)cc1[N+](=O)[O-] [CBK263566],82.5%
4,Cc1nc(NCCc2cnc(=O)n(C)c2O)cc(C2CCOC2)n1 (centres unmarked) [CBK307559],93.2%
5,O=C(Nc1ccc(F)cc1Cl)c1cnc2n(c1=O)CCS2 [CBK287382],104%
6,O=C1CC[C@H](NC(=O)c2cccs2)C(c2cccnc2)N1 (some centres unmarked) [CBK282901],98.5%
7,CCCNc1nc(-c2ccc(C)c(C)c2)cn2ccnc12 [CBK066627],101%
8,CC(=O)Nc1ccc(S(=O)(=O)N2CCCC(CO)C2)cc1 (centres unmarked) [CBK262108],98.6%
9,CC(C)(C)c1ccc(S(=O)(=O)N2CCC3(CC2)OCCO3)cc1 [CBK038429],111%
10,CC(C)Cn1ncc2cc(C(=O)Nc3cccnc3N(C)C)cnc21 [CBK304891],87.1%
11,CNC(=O)c1cn2cc(-c3cccs3)n(CC3CC3)c(=O)c2n1 [CBK306838],84%
12,COc1cc(C2C(C(=O)c3cccs3)=C(O)C(=O)N2Cc2cccnc2)cc(OC)c1OC (centres unmarked) [CBK264874],92.8%
13,Cc1cc(C)nc(NC(=O)OCc2cc(C)nc(C)c2)c1 [CBK138231],87.9%
14,COc1ccccc1Oc1ccc(NS(=O)(=O)c2cccc(C(=O)O)c2)cc1 [CBK296728],108%
15,COc1ccc(S(=O)(=O)NCCNC(=O)c2ccc(-c3cccc(Cl)c3Cl)nc2NCc2cccnc2)cc1 [CBK076436],116%
16,COc1cc(CNc2cc(-c3ccc(NC(C)=O)cc3)ncn2)cc(OC)c1OC [CBK091185],93.6%
17,CCCCCn1c(=O)c(-c2nc3ccccc3c(=O)[nH]2)c(O)c2ccccc21 [CBK291215],110%
18,CCN(CC)c1c(C)nc2ccc(C(=O)NC3CCN(C)CC3)cn12 [CBK145965],98.7%
19,CCOCCCC(=O)N1CCn2c(nnc2-c2cncc(Br)c2)C1 [CBK304764],91.5%
20,COc1cccc(C2(C(=O)N3CCc4nc[nH]c(=O)c4C3)CC2)c1 [CBK304488],83.3%
21,COCc1cc(-c2ccc(C(=O)N3CCN(C)CC3)nc2)ccc1OCC1CCN(C(=O)OC(C)(C)C)CC1 [CBK174511],84%
22,Nc1ncc(-c2ccc(Cl)cc2)nc1-c1ccc(N2CCOCC2)cc1 [CBK063953],111%

row,Structure (SMILES),"viability at 28.5 h, 10 µM"
1,O=S(=O)(Nc1nnc(C(F)(F)F)s1)c1ccc(Oc2ccccc2)cc1 [CBK062007],92.6%
2,COCCCn1c(=O)[nH]c2ncc(-c3cccc(C(=O)NCCO)c3)nc21 [CBK065042],118%
3,O=C(NCc1ccc(-c2csnn2)cc1)c1ccco1 [CBK149289],89%
4,COC(=O)c1sccc1NC(=O)c1ccncc1 [CBK265438],85.4%
5,CN(C)C(=O)CN1CCCC2(CCN(C(=O)c3cc(F)c(F)cc3F)C2)C1 (centres unmarked) [CBK132024],93.5%
6,CC(=O)Nc1cccc(-c2cc(N3CCN(CC(=O)N(C)c4ccccc4)CC3)ncn2)c1 [CBK091134],99.7%
7,CC1(C)CCCN(Cc2nnnn2-c2ccc(S(C)(=O)=O)cc2)CC1 [CBK306177],81.8%
8,COC(=O)c1ccc(-c2ccc3[nH]ccc3c2)nc1 [CBK160174T],89.1%
9,O=C(/C=C/c1ccccc1)ONC(=O)c1ccc(Cl)cc1 [CBK263702],111%
10,O=C(O)Cc1ccc(NC(=O)c2cccc(NC(=O)c3ccco3)c2)cc1 [CBK268606],96.7%
11,Cc1nc2c(c(=O)[nH]1)CN(Cc1c[nH]c3ccccc13)CC2 [CBK282327],102%
12,CCCCc1ccc(-c2ccc3ccc(NC(=O)C(C)C)nc3n2)cc1 [CBK073668],93%
13,O=C(Cc1ccccc1[N+](=O)[O-])NNC(=S)Nc1ccc(F)c(Cl)c1 [CBK266904],101%
14,Cc1ccc(S(=O)(=O)NC(C)(C)CSc2ccccn2)cc1 [CBK266360],86.1%
15,N#Cc1sc(-c2ccc(F)cc2)cc1NC(=O)c1cccc([N+](=O)[O-])c1 [CBK066845],93.3%
16,CCOc1cccc(N2C(=O)CC(N3CCN(c4ccccn4)CC3)C2=O)c1 (centres unmarked) [CBK262829],105%
17,CCCc1c(C)nc2ccccc2c1SCC(=O)O [CBK263558],93.7%
18,Cc1cc(/C=N/O)c(C)c(COCc2cc(C)cc(/C=N/O)c2C)c1 [CBK261770],91.2%
19,CN(C)C(=O)c1cccc(CNc2ncnc3c2cnn3CCC#N)c1 [CBK305955],88.3%
20,O=C(O)c1ccccc1SC(C[N+](=O)[O-])c1ccccc1Cl (centres unmarked) [CBK097071],95.6%
21,Cc1cn(C2CC(O)C(CO)O2)c(=O)[nH]c1=O (centres unmarked) [CBK011998],93.3%
22,COc1ccc(NC(=O)CSc2nc3c(c(-c4cccs4)c2C#N)CN(C)CC3)cc1OC [CBK267444],103%

row,Structure (SMILES),"viability at 28.5 h, 10 µM"
1,O=S(=O)(NCCc1nc2ccccc2[nH]1)c1ccc(Cl)c(Cl)c1 [CBK264416],93.5%
2,CCn1nc(C)c(CN(C)C(=O)C2CC=CCC2C(=O)O)c1C (centres unmarked) [CBK286884],86.1%
3,O=C(COc1ccc(Br)cc1C(=O)O)NCCc1ccccc1 [CBK286796],95.3%
4,CN1CCN(NC(=O)c2cccc(COc3ccccc3Cl)c2)CC1 [CBK265765],99.2%
5,Cc1c(C(=O)C2=C(O)C(=O)N(Cc3cccnc3)C2c2ccc(F)cc2)cnn1-c1ccccc1 (centres unmarked) [CBK266541],105%
6,CC(=O)c1ccccc1NC(=O)c1cc2ccc(F)cc2nc1C [CBK297929],89.2%
7,CCCCN(C(C)=O)c1c(CC)nc2ccc(C(=O)NCc3ccccc3OC)cn12 [CBK145761],96%
8,CC(C)(C)SCCNc1nc(Cl)nc(N2CCSCC2)n1 [CBK018768],80.2%
9,CC(C)NCC(O)Cn1c2c(c3ccccc31)CCc1c-2cnn1-c1ccccc1 (centres unmarked) [CBK261107],99.6%
10,Cc1ccc(NC(=O)Cc2ccc(N(C)C)cc2)c(C)n1 [CBK200295],104%
11,Cc1cccc2c3c([nH]c12)C1(CCCN(CCc2ccc([N+](=O)[O-])cc2)C1)NCC3 (centres unmarked) [CBK039558],92.4%
12,CCN(CC)C(=O)c1cccc(NS(=O)(=O)c2ccc(C)c(C(=O)O)c2)c1 [CBK296665],111%
13,O=C(CCC1CCCC1)Nc1nnc[nH]1 [CBK266406],100%
14,Cc1cc(=O)c2ccccc2n1CC(=O)N1CCOC2(CCCC2)C1 [CBK306811],93.5%
15,CC(C)CNc1nc2c(ncn2[C@H]2C[C@@H](O)[C@@H](CO)O2)c(=O)[nH]1 [CBK201198],94.8%
16,O=C(CCn1c(C(F)F)cc2cccnc21)NC1CCCCC1 [CBK285064],92.1%
17,O=C(CNS(=O)(=O)Cc1ccccc1[N+](=O)[O-])N1CCOCC1 [CBK042220],82.7%
18,Cc1[nH]n(-c2nc3ccccc3o2)c(=O)c1Cc1c(Cl)cccc1Cl [CBK085382],96.5%
19,S=C(Nc1nc2c(s1)CCCC2)NC1CC1 [CBK288425],90.1%
20,Cn1c(-c2ccccc2)cnc1NC(=O)C1CN(S(=O)(=O)c2ccc(F)cc2)C1 [CBK285945],98.4%
21,CN(C)S(=O)(=O)c1ccc(Cl)c(C(=O)Nc2ccc(C(=O)O)cc2)c1 [CBK265728],94.7%
22,CS(=O)(=O)NC1CCN(CCc2ccc(F)c(F)c2)C1 (centres unmarked) [CBK305078],95.3%

# Same assay, conditions: human, hela cells, % viability, bulk resorufin, single well
row,Structure (SMILES),"viability at 28.5 h, 10 µM"
1,COc1ccc2c(c1)COC1(CCN(C(=O)NC3CCCCC3)CC1)O2 [CBK060755],111%
